The conditions of series [1]: for surface tension liquid-gas: Wilhelmy plate method; for viscosity: 101.3 kPa, Liquid, Concentric cylinders viscometry.
Series [2] in a line: refractive index (Na D-line) (dimensionless). The following applies: 293.15 K; 101.33 kPa; Liquid; Standard Abbe refractometry.
The nature of series [3]: xn = mol fraction of the nth substance listed. The settings on record: x1 = 1; for surface tension liquid-gas: Wilhelmy plate method; for viscosity: 101.3 kPa, Liquid, Concentric cylinders viscometry.

± gives the expanded uncertainty stated by the source.

With `CCCCCCCCCCO` [decan-1-ol], the surface tension liquid-gas in series [1] (298.15 K) is reported as 28.35 ± 0.52 mN/m; in series [1] (303.15 K) it was 27.29 ± 0.52 mN/m; in series [1] (308.15 K), 26.23 ± 0.52 mN/m; in series [1] (313.15 K), 25.17 ± 0.52 mN/m. Further, the viscosity in series [1] (298.15 K) amounted to 11.83 ± 0.25 mPa·s; in series [1] (303.15 K), 9.754 ± 0.2 mPa·s; in series [1] (308.15 K) it was 8.135 ± 0.17 mPa·s; in series [1] (313.15 K), 6.842 ± 0.14 mPa·s. In addition, in series [2], the refractive index is given as 1.437 ± 0.001.

In the case of `CN(C)C=O` [dimethylformamide], the surface tension liquid-gas worked out at 35.2 ± 0.5 mN/m in series [1] (298.15 K), 34.1 ± 0.5 mN/m in series [1] (303.15 K), 33 ± 0.5 mN/m in series [1] (308.15 K) and 32 ± 0.5 mN/m in series [1] (313.15 K). Also, the viscosity came out at 0.8162 ± 0.017 mPa·s in series [1] (298.15 K), 0.7678 ± 0.016 mPa·s in series [1] (303.15 K), 0.7262 ± 0.016 mPa·s in series [1] (308.15 K) and 0.678 ± 0.015 mPa·s in series [1] (313.15 K). The refractive index in series [2] is given as 1.429 ± 0.001.

With `CN(C)C=O` [dimethylformamide] + CCCCCCCCCCO, the surface tension liquid-gas in series [3] (298.15 K) was found to be 35.2 ± 0.5 mN/m; in series [3] (303.15 K) it was 34.1 ± 0.5 mN/m; in series [3] (308.15 K) it was 33 ± 0.5 mN/m; in series [3] (313.15 K) it was 32 ± 0.5 mN/m. Further, the viscosity stood at 0.8162 ± 0.017 mPa·s in series [3] (298.15 K), 0.7678 ± 0.016 mPa·s in series [3] (303.15 K), 0.7262 ± 0.016 mPa·s in series [3] (308.15 K) and 0.678 ± 0.015 mPa·s in series [3] (313.15 K).

With `CN(C)C=O` [dimethylformamide] + CCCCCCCCCO, the surface tension liquid-gas came out at 35.2 ± 0.5 mN/m in series [3] (298.15 K), 34.1 ± 0.5 mN/m in series [3] (303.15 K), 33 ± 0.5 mN/m in series [3] (308.15 K) and 32 ± 0.5 mN/m in series [3] (313.15 K). Also, the viscosity in series [3] (298.15 K) worked out at 0.8162 ± 0.017 mPa·s; in series [3] (303.15 K), 0.7678 ± 0.016 mPa·s; in series [3] (308.15 K) it was 0.7262 ± 0.016 mPa·s; in series [3] (313.15 K) it was 0.678 ± 0.015 mPa·s.

Take `CN(C)C=O` [dimethylformamide] + CCCCCCCCO: the surface tension liquid-gas in series [3] (298.15 K) is on record as 35.2 ± 0.5 mN/m; in series [3] (303.15 K), 34.1 ± 0.5 mN/m; in series [3] (308.15 K), 33 ± 0.5 mN/m; in series [3] (313.15 K) it was 32 ± 0.5 mN/m. In addition, the viscosity in series [3] (298.15 K) was 0.8162 ± 0.017 mPa·s; in series [3] (303.15 K), 0.7678 ± 0.016 mPa·s; in series [3] (308.15 K), 0.7262 ± 0.016 mPa·s; in series [3] (313.15 K) it was 0.678 ± 0.015 mPa·s.

Consider `CCCCCCCCCO` [nonan-1-ol], for which the surface tension liquid-gas in series [1] (298.15 K) came out at 27.58 ± 0.57 mN/m; in series [1] (303.15 K), 26.53 ± 0.57 mN/m; in series [1] (308.15 K), 25.49 ± 0.56 mN/m; in series [1] (313.15 K) it was 24.44 ± 0.56 mN/m. In addition, the viscosity in series [1] (298.15 K) is on record as 9.715 ± 0.22 mPa·s; in series [1] (303.15 K), 7.927 ± 0.18 mPa·s; in series [1] (308.15 K), 6.664 ± 0.15 mPa·s; in series [1] (313.15 K), 5.645 ± 0.13 mPa·s. Besides, the refractive index in series [2] is listed as 1.433 ± 0.001.

As to `CCCCCCCCO` [octan-1-ol], the surface tension liquid-gas is recorded as 27.47 ± 0.52 mN/m in series [1] (298.15 K), 26.42 ± 0.52 mN/m in series [1] (303.15 K), 25.41 ± 0.52 mN/m in series [1] (308.15 K) and 24.38 ± 0.52 mN/m in series [1] (313.15 K). Further, the viscosity in series [1] (298.15 K) amounted to 7.661 ± 0.16 mPa·s; in series [1] (303.15 K), 6.402 ± 0.13 mPa·s; in series [1] (308.15 K), 5.425 ± 0.11 mPa·s; in series [1] (313.15 K), 4.628 ± 0.097 mPa·s. Moreover, the refractive index in series [2] worked out at 1.429 ± 0.001.

The record behind these values is the NIST ThermoML archive (doi:10.1016/j.jct.2014.03.022).
